Target: T1, CAD (GFP-CAD; assayed as GFP-CAD-D1371A) (Homo sapiens, UniProt P27708, D1371A)
T1 construct: full-length CAD subcloned into Not I/Bgl II sites of pEGFP-N1-His (GFP fusion, GFP kept); expressed in HEK-293T; RIPA lysate diluted 150x in MST buffer, not purified
Test: microscale thermophoresis, GFP fusion in diluted HEK-293T lysate
Format: binding
Description: microscale thermophoresis, GFP fusion in diluted HEK-293T lysate on CAD (GFP-CAD; assayed as GFP-CAD-D1371A) | direct interaction between RMY-186 and CAD-D1371A protein in vitro, with a Kd of […]

T1 sequence (P27708 whole entry D1371A, the tested form may be a part): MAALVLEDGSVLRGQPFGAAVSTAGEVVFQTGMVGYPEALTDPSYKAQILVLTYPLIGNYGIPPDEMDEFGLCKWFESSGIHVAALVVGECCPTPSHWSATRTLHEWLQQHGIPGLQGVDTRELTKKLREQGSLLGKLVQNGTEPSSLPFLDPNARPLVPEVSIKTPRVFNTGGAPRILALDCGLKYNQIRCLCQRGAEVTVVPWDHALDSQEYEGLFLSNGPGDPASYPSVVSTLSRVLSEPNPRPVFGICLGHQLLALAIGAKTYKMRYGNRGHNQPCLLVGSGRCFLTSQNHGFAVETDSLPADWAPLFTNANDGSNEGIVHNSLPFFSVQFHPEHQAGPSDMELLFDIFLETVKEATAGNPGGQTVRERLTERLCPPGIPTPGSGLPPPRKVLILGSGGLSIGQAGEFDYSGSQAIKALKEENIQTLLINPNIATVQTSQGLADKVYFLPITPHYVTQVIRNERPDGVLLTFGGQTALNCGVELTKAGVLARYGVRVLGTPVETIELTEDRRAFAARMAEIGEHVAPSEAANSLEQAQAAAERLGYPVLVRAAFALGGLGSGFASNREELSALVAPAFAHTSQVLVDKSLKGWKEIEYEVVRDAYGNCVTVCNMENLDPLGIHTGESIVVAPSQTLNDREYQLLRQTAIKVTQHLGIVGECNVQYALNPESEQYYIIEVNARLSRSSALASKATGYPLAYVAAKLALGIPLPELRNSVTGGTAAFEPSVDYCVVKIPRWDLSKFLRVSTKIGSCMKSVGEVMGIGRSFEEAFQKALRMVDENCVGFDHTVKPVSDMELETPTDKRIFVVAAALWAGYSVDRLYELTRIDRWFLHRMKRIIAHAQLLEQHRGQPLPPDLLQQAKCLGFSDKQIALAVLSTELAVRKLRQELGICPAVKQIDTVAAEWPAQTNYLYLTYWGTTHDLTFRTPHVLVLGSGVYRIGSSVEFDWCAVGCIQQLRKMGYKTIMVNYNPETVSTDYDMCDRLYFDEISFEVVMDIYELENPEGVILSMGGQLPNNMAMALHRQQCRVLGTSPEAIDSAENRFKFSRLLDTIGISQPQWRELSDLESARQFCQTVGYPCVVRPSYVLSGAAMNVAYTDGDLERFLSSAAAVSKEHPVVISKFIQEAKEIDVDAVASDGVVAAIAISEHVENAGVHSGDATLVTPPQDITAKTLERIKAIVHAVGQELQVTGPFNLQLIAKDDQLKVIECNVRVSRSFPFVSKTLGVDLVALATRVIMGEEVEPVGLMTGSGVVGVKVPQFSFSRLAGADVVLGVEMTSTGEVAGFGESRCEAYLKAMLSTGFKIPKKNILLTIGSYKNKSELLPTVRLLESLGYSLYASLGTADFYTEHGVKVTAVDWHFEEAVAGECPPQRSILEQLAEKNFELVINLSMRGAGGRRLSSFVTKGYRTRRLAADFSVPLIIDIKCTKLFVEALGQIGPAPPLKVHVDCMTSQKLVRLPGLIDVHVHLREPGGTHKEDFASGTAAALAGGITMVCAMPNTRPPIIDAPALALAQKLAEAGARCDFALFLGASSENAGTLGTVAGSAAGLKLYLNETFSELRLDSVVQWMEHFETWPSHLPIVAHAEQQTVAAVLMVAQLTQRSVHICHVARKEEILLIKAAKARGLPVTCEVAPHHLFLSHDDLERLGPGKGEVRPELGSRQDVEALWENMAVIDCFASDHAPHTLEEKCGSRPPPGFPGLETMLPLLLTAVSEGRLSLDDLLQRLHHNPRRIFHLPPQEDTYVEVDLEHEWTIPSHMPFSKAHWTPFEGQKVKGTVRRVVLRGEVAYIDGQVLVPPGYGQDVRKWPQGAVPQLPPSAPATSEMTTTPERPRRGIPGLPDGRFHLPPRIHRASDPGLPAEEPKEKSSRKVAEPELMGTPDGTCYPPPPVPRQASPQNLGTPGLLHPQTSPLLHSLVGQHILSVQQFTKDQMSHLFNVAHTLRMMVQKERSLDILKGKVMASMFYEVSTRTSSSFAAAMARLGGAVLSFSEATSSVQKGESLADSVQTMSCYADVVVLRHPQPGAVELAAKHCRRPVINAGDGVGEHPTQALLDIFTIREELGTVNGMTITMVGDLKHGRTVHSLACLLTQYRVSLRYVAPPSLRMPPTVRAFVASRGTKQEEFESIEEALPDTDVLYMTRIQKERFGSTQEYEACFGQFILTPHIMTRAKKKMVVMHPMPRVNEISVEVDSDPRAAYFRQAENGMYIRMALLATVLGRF

## O=c1c(O)c(N2CCN(Cc3cccc(Br)c3)CC2)oc2ccccc12 [compound 9, 2-(4-(3-bromobenzyl)-piperazin-1-yl)-3-hydroxy-4H-chromen-4-one]
  Kd: 6.78 µM

— publication PMC12123037, “Cleavage of CAD by caspase-3 determines the cancer cell fate during chemotherapy” (Nature Communications, 2025)
